Source: US20040091479A1, “T-cell epitope of the papillomavirus l1 and e7 protein and use thereof in diagnostics and therapy” (priority 2000, published 2004)

Tests used:
human T cells = experiment: Summary of examples 3 to 18: epitopes recognized by human T cells; assay type: cell-based; settings: Table 4, HPV18 peptides, species human
[1] = test system: CVLP-stimulated human CD4-positive T cells; experiment: Restimulating HPV18 CVLP-stimulated T cells with BLCL presenting HPV18 peptide pools (example 6); assay type: cell-based; settings: peptide common to two reactive HPV18 pools; CD4/IFNγ
Method: Human T cells (4×10^5) from a non-HLA-typed blood donor were stimulated for 1 week with HPV18 L1ΔCDIE71-53DI CVLPs and HPV18 L1ΔACDIE71-60DI CVLPS, 800 U of human GM-CSF/ml and 500 U of human IL4/ml and also, for a further 5 weeks, with HPV18 L1ΔCDIE71-53DI CVLPs and HPV18 L1ΔCDIE71-6ODI CVLPs at 37° C., with the weekly addition of 1 μg of the CVLPs mixLure (ratio of the two constructs 1:1)/ml and 10^5 antigen-presenting cells (irradiated PMBC), and harvested.
The 20 mer peptides Q1 to 52 were assembled into peptide pools A to H and 1 to 7, respectively, in accordance with the matrix
The T cells were then restimulated, at 37° C. and in 100 μl of medium, with the peptide pools and 10^5 antigen-presenting cells (donor-identical BLCL) in the presence of 10 IU of IL2/ml. The quantities of the peptide pools which were used in this connection were such that. 1 μg/ml was added in the case of each individual peptide.
Cells which were only incubated with buffer served as the negative control while cells incubated with the HPV18 L1 peptide pool and the HPV18 E7 peptide pool, respectively, served as positive controls.
(§1) 1 μl of monensin was added after an hour. The cells were then incubated at 37° C. for a further 5 hours. After that, the cells were fixed and permeabilized and stained with α-human CD8/APC, with α-human CD4/PerCP and with α-human IFNγ/FITC. The labeling of the cells was analyzed in a FACScan Calibur and the results of the measurements were analyzed using Cellquest software.

[2] = test system: HPV18 CVLP-stimulated human T cells; experiment: Restimulating HPV18 CVLP-stimulated T cells with BLCL presenting Q38, Q39, Q46 or Q47 (example 13); assay type: cell-based
Method: In analogy with example 6, human T cells (4×10^5) derived from a non-HLA-typed blood donor were stimulated with HPV18L1ΔCDIE71-53DI CVLPs and HPV18L1ΔCDIE71-60DI CVLPs and harvested.
The T cells were then restimulated, at 37° C. and in 100 μl of medium, with in each case 1 μg of peptide Q38, Q39, Q46 or Q47/ml and 10^5 antigen-presenting cells (donor-identical BLCL) in the presence of 10 IU of IL2/ml. Cells which were only incubated with buffer served as the negative control while cells which were incubated with the HPV18 L1 peptide pool or the E7 peptide pool served as positive controls.
as §1, with “was examined” for “was analyzed”

[3] = test system: CVLP-stimulated CD4-positive T cells; experiment: Restimulating HPV18 CVLP-stimulated T cells with BLCL presenting HPV18 peptide pools (example 12); assay type: cell-based, human; settings: peptide common to two reactive HPV18 pools; CD4/IFNγ
Method: In analogy with example 6, human T cells derived from a non-HLA-typed blood donor were stimulated, at 37° C., with HPV18L1ΔCDIE71-53DI CVLPs and HPV18L1ΔCDIE71-60DI CVLPs and harvested.
The T cells were then restimulated, at 37° C. and in 100 μl of medium, with the HPV18 peptide pools from example 6 and 10^5 antigen-presenting cells (donor-identical BLCL) in the presence of 10 IU of IL2/ml. Use was made, in this connection, of quantities of the peptide pools which were such that 1 μg/ml was added in the case of each individual peptide. Cells which were only incubated with buffer served as the negative control while cells which were incubated with HPV18 L1 peptide pool served as the positive control.
as §1, with “was examined” for “was analyzed”

[4] = test system: autologous peptide-loaded BLCL; experiment: Cytotoxicity test (chromium release assay) of HPV18 E786-94-specific T cells; assay type: cell-based, human; settings: effector to target ratio of 30:1, FIG. 17 bottom
Method: The predicted peptides were synthesized using standard methods (F moc method). […] For this, 1×10^5 PBMC derived from healthy, HLA-A2-positive donors were sown, in 100 μl of medium (RPMI 1640, 10% heat-inactivated AB plasma), in each well of a 96-well plate. 20 μg of peptide/ml were added to the culture medium. The cells were incubated at 37° C. and restimulated once per week with irradiated peptide-loaded autologous PBMC. The stimulator PBMC were incubated for 4 hours in medium containing 20 μg of peptide/ml. After the irradiation, they were diluted down to 1×10^4/100 μl with medium and added to the peptide-stimulated PBMC. For this, half the medium was aspirated from each well and 100 μl of the stimulator PBMC suspension were added. 10 U of IL-2/ml and 10 U of IL-7/ml were added from the 3rd stimulation onwards. From the 5th stimulation onwards, restimulation was carried out in the same manner using peptide-loaded autologous B lymphoblast cell lines (BLCL).
The cytotoxicity of HPV18 E786-94-specific T cells was determined in a chromium release assay. Autologous BLCL were used as the target cells. In each case, 5×10^5 cells were taken up in 100 μl of medium (RPMI 1640, 10% FCS) and treated with 20 μl of ^51chromium (NEN). For loading the BLCL with peptide, 50 μg of the corresponding peptide were added/ml. After that, the cells were incubated at room temperature for 2 hours while being carefully resuspended every 20-30 min. The cells were then washed 3 times with 5 ml of medium. For the sedimenting, the cells were in each case centrifuged at 1500 rpm for 5 min and then carefully resuspended. […]
The assay samples were incubated for 4 hours at 37° C., 98% atmospheric humidity and 5% CO2. […] On the following day, 150 μl of Microscint 40 scintillation fluid (Canberra-Packard, Deieich) were added and the numbers of distintegrations per minute in the individual assay samples were measured in the scintillation counter (Topcount, Canberra-Packard, Dreieich).
The specific lysis was calculated using the following formula: […]

[5] = test system: T cell line generated with HeLa CD80/HLA-A2 transfectants (H7.1-A2); experiment: IFN-γ ELISpot of H7.1-A2-specific T cell line against peptide-loaded autologous PBMC; assay type: cell-based, human; settings: H7.1-A2-induced T cell line, FIG. 17 top
[6] = test system: TIL from an HPV18- and HLA-A2-positive patient; experiment: ELISpot of tumor-infiltrating lymphocytes with peptide-loaded K-A2 cells; assay type: cell-based, human; settings: peptide-loaded K-A2 stimulators; FIG. 18 bottom
[7] = test system: T cell lines directed against HPV18 E7; experiment: ELISpot of T cell lines induced with HPV18 E7-loaded dendritic cells; assay type: cell-based, human; settings: E7 protein-induced and E7 peptide pool-induced T cell lines; epitope-loaded DC; FIG. 18 top
Method: 1×10^4 stimulator cells (K-A2 cells, that is K-562 cells (ATCC CCL-243) were transfected with an HLA A2 expression vector, PBMC or dendritic cells) were sown, in 60 μl of medium (RPMI 1640, 0.4% human albumin), in one well of a 96-well round-bottomed cell culture plate and loaded overnight with 50 μg of peptide/ml. On the following day, 5×10^4 T cells, in 60 μl of medium (containing 10 U each of IL-2 and IL-7/ml), were added to each well and the plate was incubated for 4 hours. A Millipore nitrocellulose HA plate was coated overnight, at 4° C., with the anti-human IFN-γ monoclonal antibody 1-Dlk (10 μg/ml in PBS, 60 μl/well, Hölzel Diagnostika, Cologne). On the following day, the plate was washed 3 times for in each case 5 min with 150 μl of sterile PBS per well and then blocked with medium for 1 hour at 37° C. The blocking medium was removed and the cells were transferred from the round-bottomed cell culture plate to the filter plate and then incubated for a further 20 to 22 hours. After that, the cells and the medium were removed and the filter plate was washed 6 times for 2 min with PBS/Tween 20 (0.05%). The antibody Ab-7-B6-1-biotin was then added (2 μg/ml in PBS/BSA, 60 μl/well, Hölzel Diagnostika) and the plate was incubated at 4° C. overnight. […] The spots were counted using a ZEISS-VISION (Halbergmoos) ELISpot readout system. […]

Row | Sequence | Epitope type (human T cells) | T cell epitope assignment [1] | proportion of reactive CD4-positive and IFNγ-positive T cells ([2]; 1 μg peptide/ml, donor-identical BLCL, FIG. 12 top left) | proportion of CD8-positive and IL4-positive cells ([2]; 1 μg peptide/ml, FIG. 12 lower right) | T cell epitope assignment (TH1) ([2]; conclusion from FIG. 12 top left) | T cell epitope assignment (TH1) [3] | specific lysis [4] | Haplotype (human T cells; MHC restriction) | IFN-γ ELISpot reaction [5] | ELISpot reaction of TIL populations [6] | epitope-specific T cells in ELISpot assay [7]
1 | VDLLCHEQLSDSEEENDEID [Q46, HPV18 E7 23-42] | TH1 | contain T helper epitopes | markedly higher than in the negative control | low, and comparable to the negative control | contain a TH1 epitope | contain a TH1 epitope | – | – | – | – | –
2 | FQQLFLNTL [HPV18 E786-94, HPV18 E7 86-94] | – | – | – | – | – | – | approx. 20% | HLA-A2 | specific reaction | marked reaction | detected in both T cell lines
